From patent publication US11000033B2, “Ketone or oxime compound, and herbicide” (NISSAN CHEMICAL CORPORATION, priority 2014, dated 2021)

What was measured:
Assay type in all cases: in vivo
[1] = test system: Echinochloa oryzacola Vasing.; assay: Test Example 2: herbicidal activity, application during weed generation in submerged conditions (symbol A); details: Table 23; application herbicide amount 320 g/ha; grade 0-5 by criteria of Test Example 1
Summary of the method: (§1)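 Alluvial soil in pots was flooded to a 4 cm water depth and sown with a mix of the three weed species, then grown in a greenhouse at 25° C. to 30° C. At the one- to two-leaf stage, an emulsifiable formulation diluted in water to a set dose was applied to the water surface. Effects were scored visually 3 weeks later.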

[2] = test system: Scirpus juncoides; assay: Test Example 2: herbicidal activity, application during weed generation in submerged conditions (symbol B); details: Table 23; application herbicide amount 320 g/ha; grade 0-5 by criteria of Test Example 1
Summary of the method: as §1

[3] = test system: directly sowed rice plant; assay: Test Example 3: effect on crop by foliage application, Wagner pot (symbol b); details: application herbicide amount 320 g/ha
Summary of the method: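 Plants are raised from seed in flooded paddy conditions: water stands 0.1–0.5 cm over alluvial soil, and the pot is kept in a greenhouse at 25–30 °C. Species sown are barnyardgrass (E. crus-galli var. crus-galli), Leptochloa chinensis, Cyperus difformis and rice.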

[4] = test system: Echinochloa crus-galli var. crus-galli; assay: Test Example 3: herbicidal effect by foliage application, Wagner pot (symbol H); details: application herbicide amount 320 g/ha
Summary of the method: (§2)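 Weeds and rice were sown in alluvial soil under 0.1–0.5 cm of standing water and grown for 14 days in a 25–30 °C greenhouse. An emulsion of the compound, diluted in water to a set dose, was sprayed evenly onto the foliage. Effect was scored against fixed criteria 3 weeks after treatment.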

[5] = test system: Cyperus difformis; assay: Test Example 3: herbicidal effect by foliage application, Wagner pot (symbol E); details: application herbicide amount 320 g/ha
Summary of the method: as §2

[6] = test system: Apera spica-venti; assay: Test Example 5: herbicidal effect by foliage application, plastic box (symbol L); details: 320 g/ha, 3 weeks after application
Summary of the method: (§3)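 Effect is rated 3 weeks after a foliar spray of water-diluted emulsion concentrate at a predetermined herbicide amount. Plants had grown 14 days in a 25° C. to 30° C. greenhouse from seed in sterilized diluvial soil.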

[7] = test system: Monochoria vaginalis; assay: Test Example 1: herbicidal activity, application before weed generation in submerged conditions (symbol C); details: application herbicide amount 320 g/ha
Summary of the method: (§4)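 Ratings (5: ≥90%, near complete withering; 4: 70–<90%; 3: 40–<70%; 2: 20–<40%; 1: 5–<20%; 0: ≤5%) were assigned 3 weeks after the diluted emulsion was applied to the water surface of freshly sown, submerged pots.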

[8] = test system: Alopecurus myosuroides; assay: Test Example 5: herbicidal effect by foliage application, plastic box (symbol J); details: 320 g/ha, 3 weeks after application
Summary of the method: as §3

[9] = test system: soybean; assay: Test Example 5: effect on crop by foliage application, plastic box (symbol d); details: 320 g/ha, 3 weeks after application
Summary of the method: (§5)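 Seeds were sown in spots in sterilized diluvial soil held in a plastic box 21 cm × 13 cm × 7 cm deep, covered with about 1.5 cm of soil, and grown in a greenhouse at 25° C. to 30° C.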

[10] = test system: Stellaria media; assay: Test Example 5: herbicidal effect by foliage application, plastic box (symbol P); details: 320 g/ha, 3 weeks after application
Summary of the method: as §3

[11] = test system: Leptochloa chinensis; assay: Test Example 3: herbicidal effect by foliage application, Wagner pot (symbol D); details: application herbicide amount 320 g/ha
Summary of the method: as §2

[12] = test system: Echinochloa crus-galli var. crus-galli; assay: Test Example 5: herbicidal effect by foliage application, plastic box (symbol H); details: 320 g/ha, 3 weeks after application
Summary of the method: as §3

[13] = test system: Scirpus juncoides; assay: Test Example 1: herbicidal activity, application before weed generation in submerged conditions (symbol B); details: application herbicide amount 320 g/ha
Summary of the method: as §4

[14] = test system: Setaria viridis; assay: Test Example 5: herbicidal effect by foliage application, plastic box (symbol G); details: 320 g/ha, 3 weeks after application
Summary of the method: as §3

[15] = test system: Veronica persica; assay: Test Example 5: herbicidal effect by foliage application, plastic box (symbol R); details: 320 g/ha, 3 weeks after application
Summary of the method: as §3

[16] = test system: Avena fatua; assay: Test Example 5: herbicidal effect by foliage application, plastic box (symbol I); details: 320 g/ha, 3 weeks after application
Summary of the method: as §3

[17] = test system: Amaranthus retroflexus; assay: Test Example 5: herbicidal effect by foliage application, plastic box (symbol N); details: 320 g/ha, 3 weeks after application
Summary of the method: as §3

[18] = test system: corn; assay: Test Example 5: effect on crop by foliage application, plastic box (symbol c); details: 320 g/ha, 3 weeks after application
Summary of the method: as §5

[19] = test system: transplanted rice plant; assay: Test Example 1: effect on crop, application before weed generation in submerged conditions (symbol a); details: application herbicide amount 320 g/ha
Summary of the method: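 Alluvial soil pots flooded to 4 cm water, sown with Echinochloa oryzacola, Scirpus juncoides and Monochoria vaginalis, then transplanted with 2.5 leaf stage rice seedlings; pre-emergence application. Greenhouse 25° C. to 30° C.; scored 0–5 by herbicidal ratio 3 weeks after application.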

[20] = test system: Digitaria ciliaris; assay: Test Example 5: herbicidal effect by foliage application, plastic box (symbol F); details: 320 g/ha, 3 weeks after application
Summary of the method: as §3

[21] = test system: Echinochloa oryzacola Vasing.; assay: Test Example 1: herbicidal activity, application before weed generation in submerged conditions (symbol A); details: application herbicide amount 320 g/ha
Summary of the method: as §4

[22] = test system: Abutilon theophrasti; assay: Test Example 5: herbicidal effect by foliage application, plastic box (symbol M); details: 320 g/ha, 3 weeks after application
Summary of the method: as §3

[23] = test system: Monochoria vaginalis; assay: Test Example 2: herbicidal activity, application during weed generation in submerged conditions (symbol C); details: Table 23; application herbicide amount 320 g/ha; grade 0-5 by criteria of Test Example 1
Summary of the method: as §1

[24] = test system: rice plant; assay: Test Example 5: effect on crop by foliage application, plastic box (symbol b); details: 320 g/ha, 3 weeks after application
Summary of the method: as §5

[25] = test system: wheat; assay: Test Example 5: effect on crop by foliage application, plastic box (symbol e); details: 320 g/ha, 3 weeks after application
Summary of the method: as §5

[26] = test system: Lolium multiflorum Lam.; assay: Test Example 5: herbicidal effect by foliage application, plastic box (symbol K); details: 320 g/ha, 3 weeks after application
Summary of the method: as §3

[27] = test system: rapeseed; assay: Test Example 5: effect on crop by foliage application, plastic box (symbol g); details: 320 g/ha, 3 weeks after application
Summary of the method: as §5

[28] = test system: Galium spurium; assay: Test Example 5: herbicidal effect by foliage application, plastic box (symbol Q); details: 320 g/ha, 3 weeks after application
Summary of the method: as §3

[29] = test system: Chenopodium album; assay: Test Example 5: herbicidal effect by foliage application, plastic box (symbol O); details: 320 g/ha, 3 weeks after application
Summary of the method: as §3

[30] = test system: beet; assay: Test Example 5: effect on crop by foliage application, plastic box (symbol f); details: 320 g/ha, 3 weeks after application
Summary of the method: as §5

## CON=C(C)CC1CC(O)=C(c2c(C)cc(-c3ccc(SC)cc3)cc2C)C1=O (mixture of isomers) [6-030]
[1]
  Herbicidal effect grade, A: Echinochloa oryzacola Vasing.: 2 (Herbicidal ratio of 20% or higher and lower than 40%)
[2]
  Herbicidal effect grade, B: Scirpus juncoides: 0 (Herbicidal ratio of 5% or lower (almost no effect))
[3]
  effect on crop b (directly sowed rice plant), grade 0-5: 2 (Herbicidal ratio of 20% or higher and lower than 40%)
[4]
  herbicidal effect on H (Echinochloa crus-galli var. crus-galli), grade 0-5: 4 (Herbicidal ratio of 70% or higher and lower than 90%)
[5]
  herbicidal effect on E, grade 0-5: 0 (Herbicidal ratio of 5% or lower (almost no effect))
[6]
  L: Apera spica-venti, herbicidal effect grade: 0 (Herbicidal ratio of 5% or lower (almost no effect))
[7]
  Herbicidal effect grade, C: Monochoria vaginalis: 0 (Herbicidal ratio of 5% or lower (almost no effect))
[8]
  J: Alopecurus myosuroides, herbicidal effect grade: 1 (Herbicidal ratio of 5% or higher and lower than 20%)
[9]
  d: soybean, effect on crop grade: 0 (Herbicidal ratio of 5% or lower (almost no effect))
[10]
  P: Stellaria media, herbicidal effect grade: 0 (Herbicidal ratio of 5% or lower (almost no effect))
[11]
  herbicidal effect on D (Leptochloa chinensis), grade 0-5: 5 (Herbicidal ratio of 90% or more (almost completely withered))
[12]
  H: Echinochloa crus-galli var. crus-galli, herbicidal effect grade: 1 (Herbicidal ratio of 5% or higher and lower than 20%)
[13]
  Herbicidal effect grade, B: Scirpus juncoides: 0 (Herbicidal ratio of 5% or lower (almost no effect))
[14]
  G: Setaria viridis, herbicidal effect grade: 4 (Herbicidal ratio of 70% or higher and lower than 90%)
[15]
  R: Veronica persica, herbicidal effect grade: 0 (Herbicidal ratio of 5% or lower (almost no effect))
[16]
  I: Avena fatua, herbicidal effect grade: 0 (Herbicidal ratio of 5% or lower (almost no effect))
[17]
  N: Amaranthus retroflexus, herbicidal effect grade: 0 (Herbicidal ratio of 5% or lower (almost no effect))
[18]
  c: corn, effect on crop grade: 0 (Herbicidal ratio of 5% or lower (almost no effect))
[19]
  Effect grade on crop, a: transplanted rice plant: 2 (Herbicidal ratio of 20% or higher and lower than 40%)
[20]
  F: Digitaria ciliaris, herbicidal effect grade: 4 (Herbicidal ratio of 70% or higher and lower than 90%)
[21]
  Herbicidal effect grade, A: Echinochloa oryzacola Vasing.: 3 (Herbicidal ratio of 40% or higher and lower than 70%)
[22]
  M: Abutilon theophrasti, herbicidal effect grade: 0 (Herbicidal ratio of 5% or lower (almost no effect))
[23]
  Herbicidal effect grade, C: Monochoria vaginalis: 0 (Herbicidal ratio of 5% or lower (almost no effect))
[24]
  b: directly sowed rice plant, effect on crop grade: 1 (Herbicidal ratio of 5% or higher and lower than 20%)
[25]
  e: wheat, effect on crop grade: 0 (Herbicidal ratio of 5% or lower (almost no effect))
[26]
  K: Lolium multiflorum Lam., herbicidal effect grade: 1 (Herbicidal ratio of 5% or higher and lower than 20%)
[27]
  g: rapeseed, effect on crop grade: 3 (Herbicidal ratio of 40% or higher and lower than 70%)
[28]
  Q: Galium spurium, herbicidal effect grade: 0 (Herbicidal ratio of 5% or lower (almost no effect))
[29]
  O: Chenopodium album, herbicidal effect grade: 0 (Herbicidal ratio of 5% or lower (almost no effect))
[30]
  f: beet, effect on crop grade: 0 (Herbicidal ratio of 5% or lower (almost no effect))

## CCCC=Cc1cc(C)c(C2=C(O)CC(CC(C)=NOC)C2=O)c(C)c1 (stereo not drawn) [6-071]
[1]
  Herbicidal effect grade, A: Echinochloa oryzacola Vasing.: 2 (Herbicidal ratio of 20% or higher and lower than 40%)
[2]
  Herbicidal effect grade, B: Scirpus juncoides: 0 (Herbicidal ratio of 5% or lower (almost no effect))
[3]
  effect on crop b (directly sowed rice plant), grade 0-5: 1 (Herbicidal ratio of 5% or higher and lower than 20%)
[4]
  herbicidal effect on H (Echinochloa crus-galli var. crus-galli), grade 0-5: 4 (Herbicidal ratio of 70% or higher and lower than 90%)
[5]
  herbicidal effect on E, grade 0-5: 0 (Herbicidal ratio of 5% or lower (almost no effect))
[6]
  L: Apera spica-venti, herbicidal effect (criteria of Test Example 1): 2 (Herbicidal ratio of 20% or higher and lower than 40%)
[7]
  Herbicidal effect grade, C: Monochoria vaginalis: 0 (Herbicidal ratio of 5% or lower (almost no effect))
[8]
  J: Alopecurus myosuroides, herbicidal effect (criteria of Test Example 1): 3 (Herbicidal ratio of 40% or higher and lower than 70%)
[9]
  d: soybean, effect on crop (criteria of Test Example 1): 0 (Herbicidal ratio of 5% or lower (almost no effect))
[10]
  P: Stellaria media, herbicidal effect (criteria of Test Example 1): 0 (Herbicidal ratio of 5% or lower (almost no effect))
[11]
  herbicidal effect on D (Leptochloa chinensis), grade 0-5: 5 (Herbicidal ratio of 90% or more (almost completely withered))
[12]
  H: Echinochloa crus-galli var. crus-galli, herbicidal effect (criteria of Test Example 1): 0 (Herbicidal ratio of 5% or lower (almost no effect))
[13]
  Herbicidal effect grade, B: Scirpus juncoides: 0 (Herbicidal ratio of 5% or lower (almost no effect))
[14]
  G: Setaria viridis, herbicidal effect (criteria of Test Example 1): 0 (Herbicidal ratio of 5% or lower (almost no effect))
[15]
  R: Veronica persica, herbicidal effect (criteria of Test Example 1): 0 (Herbicidal ratio of 5% or lower (almost no effect))
[16]
  I: Avena fatua, herbicidal effect (criteria of Test Example 1): 0 (Herbicidal ratio of 5% or lower (almost no effect))
[17]
  N: Amaranthus retroflexus, herbicidal effect (criteria of Test Example 1): 0 (Herbicidal ratio of 5% or lower (almost no effect))
[18]
  c: corn, effect on crop (criteria of Test Example 1): 0 (Herbicidal ratio of 5% or lower (almost no effect))
[19]
  Effect grade on crop, a: transplanted rice plant: 0 (Herbicidal ratio of 5% or lower (almost no effect))
[20]
  F: Digitaria ciliaris, herbicidal effect (criteria of Test Example 1): 0 (Herbicidal ratio of 5% or lower (almost no effect))
[21]
  Herbicidal effect grade, A: Echinochloa oryzacola Vasing.: 4 (Herbicidal ratio of 70% or higher and lower than 90%)
[22]
  M: Abutilon theophrasti, herbicidal effect (criteria of Test Example 1): 0 (Herbicidal ratio of 5% or lower (almost no effect))
[23]
  Herbicidal effect grade, C: Monochoria vaginalis: 0 (Herbicidal ratio of 5% or lower (almost no effect))
[24]
  b: directly sowed rice plant, effect on crop (criteria of Test Example 1): 1 (Herbicidal ratio of 5% or higher and lower than 20%)
[25]
  e: wheat, effect on crop (criteria of Test Example 1): 2 (Herbicidal ratio of 20% or higher and lower than 40%)
[26]
  K: Lolium multiflorum Lam., herbicidal effect (criteria of Test Example 1): 4 (Herbicidal ratio of 70% or higher and lower than 90%)
[27]
  g: rapeseed, effect on crop (criteria of Test Example 1): 0 (Herbicidal ratio of 5% or lower (almost no effect))
[28]
  Q: Galium spurium, herbicidal effect (criteria of Test Example 1): 0 (Herbicidal ratio of 5% or lower (almost no effect))
[29]
  O: Chenopodium album, herbicidal effect (criteria of Test Example 1): 0 (Herbicidal ratio of 5% or lower (almost no effect))
[30]
  f: beet, effect on crop (criteria of Test Example 1): 0 (Herbicidal ratio of 5% or lower (almost no effect))
